# Read-outs that look alike come from different tables or passages of the source.
# Tests used:
# SIVmac251 = assay: Once-weekly efficacy in an SIV infected rhesus monkey model of HIV-infection; assay type: in vivo; details: SIV-infected monkeys
# Description: Once-Weekly Efficacy in an SIV Infected Rhesus Monkey Model of HIV-Infection.
# Oral efficacy studies were conducted at New Iberia Research Center (NIRC), Lafayette, Louisiana Following treatment with BAYTRIL® (5 mg/kg, IM, SID) for 5 days, 20 monkeys were inoculated intravenously with SIVmac251. After 3 days, venous blood was collected every 2-5 days (2× per week) for viral load testing and monitored to stable viremia (wherein 3 consecutive samples were within 3-fold of each other following acute viremia peak). Plasma SIV viral RNA levels were determined using a branched DNA technique at Siemens Diagnostics, Berkeley, California.
# Following determination of stable viremia, SIV-infected monkeys were randomized by age, weight, and viral load (n=3 per group). A 2-arm adaptive design was employed in which results from Arm 1 informed the doses for Arm 2. In Arm 1, animals received two once-weekly doses of vehicle, 1.3 mg/kg EFdA, or 13 mg/kg EFdA administered via oral gavage. In Arm 2, animals received 3.9 mg/kg or 18.2 mg/kg EFdA once-weekly or 0.19 mg/kg EFdA once daily for two weeks. Blood (4 ml) was drawn for viral load determinations during the treatment period on days −2, 0 (dosing day), 1, 2, 3, 5, 7 (dosing day), 8, 9, 10, 12, and 14, and then two times per week for 3 weeks during the washout period. In addition, blood (1 ml) was drawn on days 0 (2 hrs post dose), 1 (24 hr post dose), 7 (2 hrs post dose), and 8 (24 hrs post dose) for EFdA pharmacokinetic assessment.
# SIV RNA for genotyping was isolated from 140 μl plasma using the QIAamp Viral RNA Mini kit (Cat #52904/52906). The reverse transcriptase region of SIVmac251 was reverse transcribed and amplified using SuperScript III RT/Platinum polymerase, primers S251RTF1 ([…] [2732-2751]) and S251RTR1 ([…] [4206-4225]) and 8 μl template RNA in 20 μl reactions. A nested PCR reaction was carried out using 3.5 μl of the product from the first reaction with TaKaRa LA Taq and primers S251RTF2 ([…] [2750-2769]) and S251RTR2 ([…] [4169-4188]) in 50 μl reactions. After verifying size of ˜1.5 kb by gel electrophoresis, PCR products were purified using ExoSAP-IT (Affymetrix; cat #78201) and adjusted to 15 ng/ml. PCR products (10 μl) were mixed with 5 μl 5 μM sequencing primers S251RTS5 ([…] [2760-2779]), s251RTS6 ([…] [3266-3285]), or S251RTS7 ([…] [3755-3774]). DNA sequencing was carried out at Genewiz (115 Corporate Blvd, South Plainfield, NJ 07080).
# [1] = Phase I single rising dose pharmacokinetics of oral EFdA suspension in healthy adults; assay type: in vivo, human
# Description: (§1) Pharmacokinetics of EFdA Following Administration of Oral Doses in Healthy Humans.
# (§2) The pharmacokinetics of EFdA were evaluated in Phase I single and multiple rising dose studies. In the single dose study, single oral doses of the oral suspension of EFdA from 5 to 400 mg were administered to three alternating panels of 8 healthy adult subjects. Within each panel, subjects were administered single doses of EFdA (n=6) or matching placebo (n=2) in a blinded fashion in up to 3 treatment periods. Panel A received 15 mg and 200 mg. Panel B received 30 mg, 400 mg, and 30 mg with food. Panel C received 100 mg and 5 mg. In the multiple rising dose study, multiple doses of EFdA oral capsules were administered to three panels of 8 healthy adult subjects. Within each panel, subjects were administered three once weekly doses of EFdA (n=6) or matching placebo (n=2) on Days 1, 8, and 15. Panel A received 10 mg. Panel B received 30 mg, and Panel C received 100 mg.
# [2] = Phase I multiple rising dose pharmacokinetics, three once weekly oral doses of EFdA capsules in healthy adults; assay type: in vivo, human; details: for plasma concentration (below LLQ): 10 mg dose, all subjects; for Cmax / Tmax / half-life / AUC(0-t) / AUC0-168 hr: healthy fasted subjects; for Cmax / half-life / AUC(0-t) / AUC0-168 hr: geometric mean (%GCV); for Cmax accumulation ratio Week 3/Week 1: geometric mean (min, max); for Tmax / half-life / AUC(0-t): human; for Tmax: po, median (min, max); for AUC(0-t): read-out: AUC0-168 hr
# Description: as §1, §2
# HIV-1 = system: HIV-1
# Excerpt: The single dose monotherapy efficacy of EFDA is currently being evaluated in HIV-1 patients naïve to anti-retroviral treatment.
# SIV = details: PBMCs isolated from uninfected monkeys 24 hr after drug administration; Stoddart et al. 2015; cited from earlier work
# [3] = in vitro; lymphoid derived cell lines and peripheral blood mononuclear cells; Stoddart et al. 2015; cited from earlier work
# [4] = EFdA in plasma, 30 mg oral once weekly, Week 3
# [5] = EFdA in plasma, 100 mg oral once weekly, Week 3
# [6] = single 10 mg dose, HIV-1 patients, plasma HIV-1 RNA, N=6
# [7] = single 10 mg dose, adjusted by pooled historical placebo
# [8] = EFdA-TP in PBMCs, EFdA 10 mg oral once weekly, Week 1
# [9] = EFdA-TP in PBMCs, EFdA 30 mg oral once weekly, Week 1
# [10] = EFdA-TP in PBMCs, EFdA 30 mg oral once weekly, Week 3
# [11] = EFdA-TP in PBMCs, EFdA 100 mg oral once weekly, Week 1
# [12] = EFdA-TP in PBMCs, EFdA 100 mg oral once weekly, Week 3
# [13] = PBMCs, following multiple doses of 30 mg and 100 mg
compound,measurement,setting,value
"C#C[C@]1(CO)O[C@@H](n2cnc3c(N)nc(F)nc32)C[C@@H]1O [EFdA, 4′-Ethynyl-2-fluoro-2′-deoxyadenosine]",VL suppression maintained,"SIVmac251; 3.9 mg/kg QW oral, from Day 7 to Day 14",7 days
same,VL drop,SIVmac251; 3.9 to 18.2 mg/kg QW oral,close to maximal
same,VL during the wash-out period,SIVmac251; after cessation of dosing,dose-dependent VL rebound
same,control of viremia,SIVmac251; once-weekly oral versus once-daily treatment,can control viremia with once-weekly oral administration as well as once-daily treatment
same,effect of food on intracellular pharmacokinetics,"[1]; 30 mg with food, high-fat meal, single dose",largely unaffected by a high-fat meal
same,plasma exposure versus dose,"[1]; EFdA in plasma, between 5 and 400 mg single oral dose",approximately dose-proportional
same,median Tmax,"[1]; EFdA in plasma, single oral doses 5 to 400 mg, healthy adults",0.5 h
same,reduction of plasma Cmax in rapid initial phase,"[1]; EFdA in plasma, within the first 6-12 hours, single oral dose",approximately 10 fold
same,half-life,"[1]; human, EFdA in plasma, single oral doses 5 to 400 mg, healthy adults, read-out: apparent terminal half-life, slow terminal phase",50 to 60 h
same,plasma concentration (below LLQ),[2]; at 48 hr post-dose and later on week 1,< 3.41 nM
same,plasma concentration (below LLQ),[2]; at 96 hr post-dose or later in week 3,< 3.41 nM
same,Cmax,"[2]; EFdA in plasma, 10 mg oral once weekly, Week 1, read-out: Cmax",193 nM
same,Cmax,"[2]; EFdA in plasma, 10 mg oral once weekly, Week 3, read-out: Cmax",241 nM
same,Cmax accumulation ratio Week 3/Week 1,"[2]; EFdA in plasma, 10 mg oral once weekly","1.25 (0.70, 1.66)"
same,Cmax,"[2]; EFdA in plasma, 30 mg oral once weekly, Week 1, read-out: Cmax",647 nM
same,Cmax,"[2]; EFdA in plasma, 30 mg oral once weekly, Week 3, read-out: Cmax",637 nM
same,Cmax accumulation ratio Week 3/Week 1,"[2]; EFdA in plasma, 30 mg oral once weekly","0.98 (0.73, 1.44)"
same,Cmax,"[2]; EFdA in plasma, 100 mg oral once weekly, Week 1, read-out: Cmax",1470 nM
same,Cmax,"[2]; EFdA in plasma, 100 mg oral once weekly, Week 3, read-out: Cmax",1850 nM
same,Cmax accumulation ratio Week 3/Week 1,"[2]; EFdA in plasma, 100 mg oral once weekly","1.26 (0.26, 3.59)"
same,exposure versus dose,"[2]; EFdA in plasma, 10, 30, 100 mg once weekly",generally dose-proportional
same,Tmax,"[2]; plasma, 10 mg, EFdA in plasma, 10 mg oral once weekly, Week 1",1 h
same,Tmax,"[2]; plasma, 10 mg, EFdA in plasma, 10 mg oral once weekly, Week 3",1 h
same,Tmax,"[2]; plasma, 30 mg, EFdA in plasma, 30 mg oral once weekly, Week 1",1 h
same,Tmax,"[2]; plasma, 30 mg, EFdA in plasma, 30 mg oral once weekly, Week 3",1 h
same,Tmax,"[2]; plasma, 100 mg, EFdA in plasma, 100 mg oral once weekly, Week 1",2 h
same,Tmax,"[2]; plasma, 100 mg, EFdA in plasma, 100 mg oral once weekly, Week 3",1 h
same,half-life,[2]; [4],74.1 h
same,AUC(0-t),[2]; [4],3.97 µM·h
same,half-life,[2]; [5],87.1 h
same,AUC(0-t),[2]; [5],12 µM·h
same,accumulation of EFdA in plasma,"[2]; plasma, multiple once weekly doses",little to no accumulation
same,"Change from Baseline in Viral Load, Max",HIV-1; [6],−1.31 log10 copies/mL
same,"Change from Baseline in Viral Load, Median",HIV-1; [6],−1.63 log10 copies/mL
same,"Change from Baseline in Viral Load, Min",HIV-1; [6],−1.97 log10 copies/mL
same,"Change from Baseline in Viral Load, LS mean (95% CI)","HIV-1; single 10 mg dose, HIV-1 patients, plasma HIV-1 RNA, N=6, LDA model","−1.67 (−1.87, −1.47) log10 copies/mL"
same,PP = Posterior Probability of true mean difference in plasma HIV-1 RNA reduction from baseline between EFDA and placebo at least 0.5 log10 copies/mL,HIV-1; [7],>99.9%
same,"Placebo Corrected Change from Baseline in Viral Load, Posterior mean",HIV-1; [7],−1.64 log10 copies/mL
same,mean (95% CI) placebo adjusted VL reduction,"HIV-1; single 10 mg dose, at 168 hours post-dose, HIV-1 patients",1.67 log 10
same,recrudescence of viral load,"HIV-1; single 10 mg dose, through Day 10",no evidence of recrudescence
same,mean VL reduction,"HIV-1; single 10 mg dose, through Day 10, HIV-1 patients",1.78 log 10
same,tolerability,"HIV-1; single 10-mg dose, HIV-1 patients, limited number of mild/moderate adverse experiences",generally well tolerated
same,susceptibility of PBMCs to SIV infection,SIV,refractory to SIV infection
"C#C[C@]1(COP(=O)(O)OP(=O)(O)OP(=O)(O)O)O[C@@H](n2cnc3c(N)nc(F)nc32)C[C@@H]1O [EFdA-TP, 4′-ethynyl-2-fluoro-2′-deoxyadenosine triphosphate]",exposure versus dose,"[2]; EFdA-TP in PBMC, EFdA 10, 30, 100 mg once weekly",generally dose-proportional
same,AUC0-168 hr,[2]; [8],341 (21.2) hr * pmo1/10^6 cells
same,Cmax,[2]; [8],3.78 (15.3) pmo1/10^6 cells
same,AUC0-168 hr,[2]; [9],1160 (41.5) hr * pmo1/10^6 cells
same,Cmax,[2]; [9],13.2 (51.3) pmo1/10^6 cells
same,AUC0-168 hr,[2]; [10],1570 (12.3) hr * pmo1/10^6 cells
same,Cmax,[2]; [10],19.6 (13.7) pmo1/10^6 cells
same,AUC0-168 hr,[2]; [11],3020 (31.3) hr * pmo1/10^6 cells
same,Cmax,[2]; [11],27.9 (21.2) pmo1/10^6 cells
same,AUC0-168 hr,[2]; [12],4580 (17.6) hr * pmo1/10^6 cells
same,Cmax,[2]; [12],43.0 (16.7) pmo1/10^6 cells
same,accumulation of EFdA-TP AUC0-168hr and Cmax,[2]; [13],modest degree of accumulation
same,accumulation of EFdA-TP C168hr,[2]; [13],little to no accumulation
same,intracellular half-life,[3],exceeds 72 hrs

# Reference: patent US12171776B2, “Methods for treatment and prophylaxis of HIV and AIDS” (Merck Sharp & Dohme LLC, priority 2016, dated 2024)
